Measurements: publication PMC8859984 (Journal of medicinal chemistry, 2020)
“Also recorded” adds a separate entry of the source.

How the values were obtained:
EED (1–441)-His protein = EED (1–441)-His protein (Homo sapiens, UniProt O75530); assay: EED-H3K27me3 peptide competition binding assay by AlphaScreen; details: vs compound 21
H3K27me3 = assay: Pharmacodynamic analysis of H3K27me3 in KARPAS422 xenograft tumor tissue; type: in vivo, SCID mice; details: single 100 mg/kg oral administration, 24 h, Western blotting
[1] = system: KARPAS422 xenograft model; assay: Antitumor activity in the KARPAS422 xenograft model; type: in vivo, SCID mice; details: for tumor regression in KARPAS422 xenograft model: 50 and 100 mg/kg via oral gavage, daily for 28 days
[2] = Animal body weights during the KARPAS422 xenograft efficacy experiment; type: in vivo, SCID mice; details: 50 and 100 mg/kg oral gavage daily for 28 days
tumor growth = details: 300 mg/kg twice a week subcutaneous injections for 5 weeks; cited from earlier work
KARPAS422 cell tumor = details: 300 mg/kg twice daily via oral gavage; cited from earlier work

Sequence of EED (1–441)-His protein (O75530 whole entry): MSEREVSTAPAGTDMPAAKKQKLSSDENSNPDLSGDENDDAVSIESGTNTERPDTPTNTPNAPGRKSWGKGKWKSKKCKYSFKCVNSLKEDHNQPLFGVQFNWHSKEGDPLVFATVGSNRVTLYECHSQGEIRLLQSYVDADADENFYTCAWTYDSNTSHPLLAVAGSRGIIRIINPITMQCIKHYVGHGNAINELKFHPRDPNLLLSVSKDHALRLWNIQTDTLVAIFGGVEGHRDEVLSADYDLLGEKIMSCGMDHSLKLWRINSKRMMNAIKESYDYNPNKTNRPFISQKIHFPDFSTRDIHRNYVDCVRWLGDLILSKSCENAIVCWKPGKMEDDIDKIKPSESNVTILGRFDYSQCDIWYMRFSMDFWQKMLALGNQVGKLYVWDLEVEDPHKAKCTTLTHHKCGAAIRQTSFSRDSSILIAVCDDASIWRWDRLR

CCOC(=O)c1ncn2c(NCc3ccco3)ncc(-c3ccccc3)c12 [Compound 8, Ethyl 5-((Furan-2-ylmethyl)amino)-8-phenylimidazo[1,5-c]-pyrimidine-1-carboxylate]
times more potent than 7 in inhibition of cell growth in KARPAS422 (KARPAS422 cells; vs compound 7): 2 times

CCOC(=O)c1ncn2c(NCc3ccccc3)ncc(-c3ccccc3)c12 [Compound 10, Ethyl 5-(Benzylamino)-8-phenylimidazo[1,5-c]pyrimidine-1-carboxylate]
times less potent than 8 in cellular assay (KARPAS422 cells; vs compound 8, KARPAS422): 2–3 times

CCOC(=O)c1ncn2c(NCc3c(F)cccc3OC)ncc(-c3ccccc3)c12 [Compound 12, Ethyl 5-((2-Fluoro-6-methoxybenzyl)amino)-8-phenylimidazo-[1,5-c]pyrimidine-1-carboxylate]
times more potent than 11 in cell growth inhibition in KARPAS422 (KARPAS422 cells; vs compound 11): 6 times

CCOC(=O)c1ncn2c(NCc3cc(OC)ccc3F)ncc(-c3ccccc3)c12 [Compound 13, Ethyl 5-((2-Fluoro-5-methoxybenzyl)amino)-8-phenylimidazo-[1,5-c]pyrimidine-1-carboxylate]
times less potent than 12 in cell growth inhibition in KARPAS422 (KARPAS422 cells; vs compound 12): 8 times

CCOC(=O)c1ncn2c(NCc3cccc4c3CCO4)ncc(-c3ccccc3)c12 [Compound 17, Ethyl 5-(((2,3-Dihydrobenzofuran-4-yl)methyl)amino)-8-phenylimidazo[1,5-c]pyrimidine-1-carboxylate]
times more potent than 16 in inhibition of cell growth in KARPAS422 (KARPAS422 cells; vs compound 16): 30 times

CS(=O)(=O)c1ncn2c(NCc3c(F)ccc4c3CCO4)ncc(-c3ccc(F)cc3)c12 [Compound 24, N-((5-Fluoro-2,3-dihydrobenzofuran-4-yl)methyl)-8-(4-fluorophenyl)-1(methylsulfonyl)imidazo[1,5-c]pyrimidin-5-amine]
times less potent than 21 in inhibition of KARPAS422 cell growth (KARPAS422 cells; vs compound 21): 2–3 times

CS(=O)(=O)c1ncn2c(NCc3c(F)ccc4c3CCO4)ncc(-c3ccc(C4CC4)nc3)c12 [Compound 28, 8-(6-Cyclopropylpyridin-3-yl)-N-((5-fluoro-2,3-dihydrobenzofuran-4-yl)methyl)-1-(methylsulfonyl)imidazo[1,5-c]pyrimidin-5-amine]
times more potent than 21 in binding to EED (EED (1–441)-His protein): 3–4 times | level of H3K27me3 in KARPAS422 tumor tissue (H3K27me3): effectively reduces the level of H3K27me3 | tumor regression in KARPAS422 xenograft model ([1]; listed as EEDi-5285): complete and durable tumor regression; also recorded: complete and long-lasting tumor regression | regrowth of tumors after end of treatment ([1]; after treatment had been stopped for 72 days, 50 and 100 mg/kg oral daily for 28 days): no regrowth of tumors was observed | animal weight loss during the entire experiment [2]: minimal weight loss | times more potent than 21 in inhibition of KARPAS422 cell growth (KARPAS422 cells; vs compound 21): 3–4 times

CS(=O)(=O)c1ncn2c(NCc3c(F)ccc4c3CCO4)ncc(-c3ccc(C(F)F)nc3)c12 [Compound 29, 8-(6-(Difluoromethyl)pyridin-3-yl)-N-((5-fluoro-2,3-dihydrobenzofuran-4-yl)methyl)-1-(methylsulfonyl)imidazo[1,5-c]pyrimidin-5-amine]
times more potent than 21 in binding to EED (EED (1–441)-His protein): 5 times

Cc1ccc(-c2cnc(NCc3c(F)ccc4c3CCO4)n3cnc(S(C)(=O)=O)c23)c(C)n1 [Compound 32, 8-(2,6-Dimethylpyridin-3-yl)-N-((5-fluoro-2,3-dihydrobenzofuran-4-yl)methyl)-1-(methylsulfonyl)imidazo[1,5-c]pyrimidin-5-amine]
level of H3K27me3 in KARPAS422 tumor tissue (H3K27me3): effectively reduces the level of H3K27me3 | tumor regression in KARPAS422 xenograft model ([1]; listed as EEDi-1056): complete tumor regression

CS(=O)(=O)c1ncn2c(NCc3c(F)ccc4c3CCO4)ncc(C3CCOCC3)c12 [Compound 35, N-((5-Fluoro-2,3-dihydrobenzofuran-4-yl)methyl)-1-(methylsulfonyl)-8-(tetrahydro-2H-pyran-4-yl)imidazo[1,5-c]pyrimidin-5-amine]
times less potent than 21 in binding to EED (EED (1–441)-His protein): 17 times | times less potent than 21 in inhibition of KARPAS422 cell growth (KARPAS422 cells; vs compound 21): 24 times

CN(C)[C@H]1CN(C2CCc3cccc(F)c32)C[C@@H]1c1ccc(N2CCN(S(C)(=O)=O)CC2)cc1 (stereo partly shown) [Compound A-395]
inhibition of tumor growth (tumor growth): 84%

CS(=O)(=O)c1ccc(-c2cnc(NCc3ccco3)n3cnnc23)cc1 [EED226]
KARPAS422 cell tumor regression (KARPAS422 cell tumor): complete KARPAS422 cell tumor regression
